The values below come from US6890513B2, “Metal-carborane complexes for radioimaging and radiotherapy and methods for their preparation” (McMaster University, priority 2001, dated 2005).

A short description of the data set: cysteine challenge experiment (stability of Re and Tc carborane complexes). The data set is classed as physicochemical. To be noted: thousand fold excess of cysteine, 1:1 (v/v) phosphate buffer (pH=7.4)-ethanol, 37° C., over 24 hours. As to the method:
The stability of the Re and Tc carborane complexes were evaluated using a cysteine challenge experiment.^21 Compound 1, for example, was incubated with a thousand fold excess of cysteine in a 1:1 (v/v) phosphate buffer (pH=7.4)-ethanol mixture at 37° C. over 24 hours.

Take “[NEt4][Re(CO)3(η^5-7,8-C2B9H11)] [Compound 1]”: the “stability (decomposition) in cysteine challenge by HPLC, FTIR and electrospray mass spectrometry” value is given as “no signs of decomposition”.
